Data: PubChem BioAssay AID248 (DTP/NCI, 2004)
“And” between values parts separate entries of the source, which are not always exact repeats. Equal values may be shown once. Toxic doses and inconclusive results are not listed.

Tested on: L1210 leukemia ip in BDF1 mice, survival T/C
Assay: NCI In Vivo Anticancer Drug Screen. Data for tumor model L1210 Leukemia (intraperitoneal) in B6D2F1 (BDF1) mice
Conditions: endpoint: mean survival time, higher = longer survival
Summary of the method: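 Antitumor effect is assessed in tumor-bearing animals. Survival in the compound arm is compared with a vehicle-dosed control arm and expressed as their quotient.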

[1] = dose: 100.0 mg/kg/injection, schedule: Q01DX009 (ip), vehicle: saline
[2] = dose: 200.0 mg/kg/injection, schedule: Q01DX009 (ip), vehicle: saline
[3] = dose: 400.0 mg/kg/injection, schedule: Q01DX009 (ip), vehicle: saline
[4] = dose: 100.0 mg/kg/injection, schedule: Q04DX002 (ip), vehicle: saline with Tween-80
[5] = dose: 200.0 mg/kg/injection, schedule: Q04DX002 (ip), vehicle: saline with Tween-80
[6] = dose: 100.0 mg/kg/injection, schedule: Q01DX001 (ip), vehicle: saline with Tween-80
[7] = dose: 100.0 mg/kg/injection, schedule: Q04DX003 (ip), vehicle: saline with Tween-80
[8] = dose: 200.0 mg/kg/injection, schedule: Q01DX001 (ip), vehicle: saline with Tween-80
[9] = dose: 100.0 mg/kg/injection, schedule: Q04DX003 (ip), vehicle: saline
[10] = dose: 200.0 mg/kg/injection, schedule: Q04DX003 (ip), vehicle: saline
[11] = dose: 400.0 mg/kg/injection, schedule: Q04DX003 (ip), vehicle: saline
[12] = dose: 200.0 mg/kg/injection, schedule: Q01DX009 (ip), vehicle: saline with Tween-80
[13] = dose: 400.0 mg/kg/injection, schedule: Q01DX001 (ip), vehicle: saline with Tween-80
[14] = dose: 400.0 mg/kg/injection, schedule: Q01DX009 (ip), vehicle: saline with Tween-80
[15] = dose: 100.0 mg/kg/injection, schedule: Q04DX003 (ip), vehicle: Klucel (hydroxypropylcellulose) (HPC)
[16] = dose: 200.0 mg/kg/injection, schedule: Q04DX003 (ip), vehicle: Klucel (hydroxypropylcellulose) (HPC)
[17] = dose: 400.0 mg/kg/injection, schedule: Q04DX003 (ip), vehicle: Klucel (hydroxypropylcellulose) (HPC)
[18] = dose: 100.0 mg/kg/injection, schedule: Q01DX009 (ip), vehicle: Klucel (hydroxypropylcellulose) (HPC)
[19] = dose: 200.0 mg/kg/injection, schedule: Q01DX009 (ip), vehicle: Klucel (hydroxypropylcellulose) (HPC)
[20] = dose: 400.0 mg/kg/injection, schedule: Q01DX009 (ip), vehicle: Klucel (hydroxypropylcellulose) (HPC)

## CCc1ccccc1NC(=O)Oc1cccc(C(F)(F)F)c1
[1]
  T/C: 104 % of control
[2]
  T/C: 94 % of control
[3]
  T/C: 103 % of control

## CSc1n[nH]c(Cl)n1
dose: 25.0 mg/kg/injection, schedule: Q04DX002 (ip), vehicle: saline with Tween-80
  T/C: 98 % of control and 103 % of control
dose: 50.0 mg/kg/injection, schedule: Q04DX002 (ip), vehicle: saline with Tween-80
  T/C: 102 % of control and 106 % of control
[4]
  T/C: 103 % of control and 107 % of control and 114 % of control
[5]
  T/C: 104 % of control and 113 % of control and 90 % of control
dose: 400.0 mg/kg/injection, schedule: Q04DX002 (ip), vehicle: saline with Tween-80
  T/C: 93 % of control

## O=C(NC(=S)Nc1ccc(F)cc1)c1cccc([N+](=O)[O-])c1
dose: 12.5 mg/kg/injection, schedule: Q01DX009 (ip), vehicle: saline with Tween-80
  T/C: 97 % of control and 98 % of control
dose: 25.0 mg/kg/injection, schedule: Q01DX009 (ip), vehicle: saline with Tween-80
  T/C: 94 % of control and 97 % of control
dose: 50.0 mg/kg/injection, schedule: Q04DX003 (ip), vehicle: saline with Tween-80
  T/C: 100 % of control
[6]
  T/C: 97 % of control
[4]
  T/C: 101 % of control
[7]
  T/C: 97 % of control
[8]
  T/C: 95 % of control
[5]
  T/C: 93 % of control and 97 % of control

## O=C(Cn1cc(F)c(=O)[nH]c1=O)N1CCC2(CC1)SSC1(CCN(C(=O)Cn3cc(F)c(=O)[nH]c3=O)CC1)S2
[1]
  T/C: 96 % of control
[9]
  T/C: 104 % of control
[2]
  T/C: 96 % of control
[10]
  T/C: 97 % of control
[11]
  T/C: 97 % of control

## COc1cccc2c1C(=O)c1c(O)c3c(c(O)c1C2=O)C[C@@](O)(C(=O)COC(=O)c1ccccc1)C[C@@H]3OC1CC(N)C(O)C(C)O1 (stereo partly drawn)
dose: 0.5 mg/kg/injection, schedule: Q04DX003 (ip), vehicle: Klucel (hydroxypropylcellulose) (HPC)
  T/C: 117 % of control
dose: 0.8 mg/kg/injection, schedule: Q04DX003 (ip), vehicle: Klucel (hydroxypropylcellulose) (HPC)
  T/C: 118 % of control
dose: 4.4 mg/kg/injection, schedule: Q04DX003 (ip), vehicle: Klucel (hydroxypropylcellulose) (HPC)
  T/C: 152 % of control
dose: 6.8 mg/kg/injection, schedule: Q04DX003 (ip), vehicle: Klucel (hydroxypropylcellulose) (HPC)
  T/C: 165 % of control
dose: 10.0 mg/kg/injection, schedule: Q04DX003 (ip), vehicle: Klucel (hydroxypropylcellulose) (HPC)
  T/C: 172 % of control

## C=C[C@@](C)(O)CC/C=C(/C)CCC=C(C)C
dose: 6.0 mg/kg/injection, schedule: Q01DX009 (ip), vehicle: saline
  T/C: 112 % of control
dose: 12.0 mg/kg/injection, schedule: Q01DX009 (ip), vehicle: saline
  T/C: 100 % of control
dose: 25.0 mg/kg/injection, schedule: Q01DX009 (ip), vehicle: saline
  T/C: 101 % of control
dose: 50.0 mg/kg/injection, schedule: Q01DX009 (ip), vehicle: saline
  T/C: 106 % of control
[9]
  T/C: 97 % of control
[10]
  T/C: 96 % of control
[11]
  T/C: 102 % of control

## COc1ccccc1-n1c(O)c(N=Nc2ccc(Cl)cc2)c(=O)n(-c2ccc(Cl)cc2)c1=S
dose: 75.0 mg/kg/injection, schedule: Q04DX003 (ip), vehicle: Klucel (hydroxypropylcellulose) (HPC)
  T/C: 94 % of control
dose: 100.0 mg/kg/injection, schedule: Q01DX001 (ip), vehicle: Klucel (hydroxypropylcellulose) (HPC)
  T/C: 94 % of control
dose: 150.0 mg/kg/injection, schedule: Q04DX003 (ip), vehicle: Klucel (hydroxypropylcellulose) (HPC)
  T/C: 103 % of control
dose: 200.0 mg/kg/injection, schedule: Q01DX001 (ip), vehicle: Klucel (hydroxypropylcellulose) (HPC)
  T/C: 100 % of control
dose: 300.0 mg/kg/injection, schedule: Q04DX003 (ip), vehicle: Klucel (hydroxypropylcellulose) (HPC)
  T/C: 90 % of control

## CCOC(=O)C1=C(C)C(C)C(=O)NC1=O (stereo not drawn)
[6]
  T/C: 100 % of control
[8]
  T/C: 101 % of control
[12]
  T/C: 110 % of control
[13]
  T/C: 96 % of control
[14]
  T/C: 96 % of control

## C=CCS(=O)(=O)c1ccccc1
[1]
  T/C: 106 % of control
[2]
  T/C: 98 % of control
[3]
  T/C: 101 % of control

## O/N=C/c1c(O)cccc1Cl
dose: 75.0 mg/kg/injection, schedule: Q01DX001 (ip), vehicle: acetone
  T/C: 102 % of control
dose: 150.0 mg/kg/injection, schedule: Q01DX001 (ip), vehicle: acetone
  T/C: 91 % of control

## COc1ccc(OC)c(C(=O)CCCCC(=O)O)c1
[15]
  T/C: 95 % of control
[16]
  T/C: 93 % of control
[17]
  T/C: 104 % of control

## NC(Cc1ccccc1)C(=O)NCCCl (stereo not drawn)
dose: 10.0 mg/kg/injection, schedule: Q01DX Z (ip), vehicle: saline
  T/C: 86 % of control
dose: 30.0 mg/kg/injection, schedule: Q01DX Z (ip), vehicle: saline
  T/C: 93 % of control
dose: 300.0 mg/kg/injection, schedule: Q01DX Z (ip), vehicle: saline
  T/C: 96 % of control

## CS(=O)CCCC(=O)O (stereo not drawn)
[6]
  T/C: 102 % of control
[8]
  T/C: 94 % of control
[13]
  T/C: 97 % of control

## CCCCCCCCC(O)CCCC (stereo not drawn)
[18]
  T/C: 93 % of control
[15]
  T/C: 97 % of control
[19]
  T/C: 98 % of control
[16]
  T/C: 105 % of control
[20]
  T/C: 95 % of control
[17]
  T/C: 100 % of control

## CCOC(=O)N1C2C(c3ccccc3)=NC(C)(C)N2C(c2ccc([N+](=O)[O-])cc2)N1C(=O)OCC (stereo not drawn)
dose: 100.0 mg/kg/injection, schedule: Q01DX001 (ip), vehicle: other
  T/C: 93 % of control
dose: 200.0 mg/kg/injection, schedule: Q01DX001 (ip), vehicle: other
  T/C: 102 % of control
dose: 400.0 mg/kg/injection, schedule: Q01DX001 (ip), vehicle: other
  T/C: 91 % of control

## CCOc1ccc2ccccc2c1OP(=O)(OCC)OCC
dose: 100.0 mg/kg/injection, schedule: Q04DX002 (ip), vehicle: other
  T/C: 103 % of control
dose: 200.0 mg/kg/injection, schedule: Q04DX002 (ip), vehicle: other
  T/C: 113 % of control
dose: 400.0 mg/kg/injection, schedule: Q04DX002 (ip), vehicle: other
  T/C: 106 % of control

## O=[N+]([O-])c1ccc(/C=C/C=C/c2ccccc2)cc1Cl
[15]
  T/C: 102 % of control
[16]
  T/C: 102 % of control
[17]
  T/C: 101 % of control

## c1cc[c]([Sn]([O]B([O][Sn]([c]2ccccc2)([c]2ccccc2)[c]2ccccc2)[O][Sn]([c]2ccccc2)([c]2ccccc2)[c]2ccccc2)([c]2ccccc2)[c]2ccccc2)cc1
dose: 5.0 mg/kg/injection, schedule: Q04DX002 (ip), vehicle: saline with Tween-80
  T/C: 101 % of control
dose: 10.0 mg/kg/injection, schedule: Q04DX002 (ip), vehicle: saline with Tween-80
  T/C: 104 % of control
dose: 20.0 mg/kg/injection, schedule: Q04DX002 (ip), vehicle: saline with Tween-80
  T/C: 101 % of control

## CCOC(=O)C1C=NC([N+](=O)[O-])=C1Br (stereo not drawn)
dose: 25.0 mg/kg/injection, schedule: Q04DX002 (ip), vehicle: Klucel (hydroxypropylcellulose) (HPC)
  T/C: 102 % of control
dose: 50.0 mg/kg/injection, schedule: Q04DX002 (ip), vehicle: Klucel (hydroxypropylcellulose) (HPC)
  T/C: 109 % of control
dose: 100.0 mg/kg/injection, schedule: Q04DX002 (ip), vehicle: Klucel (hydroxypropylcellulose) (HPC)
  T/C: 103 % of control and 105 % of control
dose: 400.0 mg/kg/injection, schedule: Q04DX002 (ip), vehicle: Klucel (hydroxypropylcellulose) (HPC)
  T/C: 93 % of control

## CC1CC=CC(N2C(=O)c3ccccc3C2=O)C1 (stereo not drawn)
dose: 200.0 mg/kg/injection, schedule: Q01DX001 (ip), vehicle: carboxymethylcellulose (CMC)
  T/C: 91 % of control
dose: 400.0 mg/kg/injection, schedule: Q01DX001 (ip), vehicle: carboxymethylcellulose (CMC)
  T/C: 93 % of control

## O=C1Cc2ccccc21
dose: 100.0 mg/kg/injection, schedule: Q01DX009 (ip), vehicle: saline with Tween-80
  T/C: 97 % of control
[7]
  T/C: 95 % of control
[12]
  T/C: 97 % of control
dose: 200.0 mg/kg/injection, schedule: Q04DX003 (ip), vehicle: saline with Tween-80
  T/C: 94 % of control
[14]
  T/C: 96 % of control
dose: 400.0 mg/kg/injection, schedule: Q04DX003 (ip), vehicle: saline with Tween-80
  T/C: 98 % of control

## Cc1cc(C)c(S(=O)(=O)c2c(C)cc(C)c([N+](=O)[O-])c2C)c(C)c1[N+](=O)[O-]
[18]
  T/C: 98 % of control
[15]
  T/C: 92 % of control
[19]
  T/C: 88 % of control
[16]
  T/C: 93 % of control
[20]
  T/C: 88 % of control
[17]
  T/C: 90 % of control
